Values quoted from earlier work in patent US20120252862A1, “Dissolvable Film Strip Comprising Natural Components” (YEDITEPE UNIVERSITES, priority 2009, published 2012).

Settings: single oral dose

O=C(O[C@@H]1Cc2c(O)cc(O)cc2O[C@@H]1c1cc(O)c(O)c(O)c1)c1cc(O)c(O)c(O)c1 [EGCG, epigallocatechin gallate]
Dose reported safe to be applied: up to 1600 mg
